Laboratory results published in ChEMBL document CHEMBL3112510, “Optimization, pharmacophore modeling and 3D-QSAR studies of sipholanes as breast cancer migration and proliferation inhibitors” (Eur J Med Chem, 2014).

How the values were obtained:
MDA-MB-231 [1] = experiment: Antiproliferative activity against human MDA-MB-231 cells after 72 hrs by MTT assay; settings: MDA-MB-231, 72 h
MCF7 = experiment: cells; settings: Homo sapiens, MCF7, 72 h
MDA-MB-231 [2] = experiment: Antimigratory activity in human MDA-MB-231 cells after 24 hrs by wound healing assay; settings: MDA-MB-231, 24 h

| SMILES | IC50 (MDA-MB-231 [1]) [µM] | IC50 (MCF7) [µM] | IC50 (MDA-MB-231 [2]) [µM] | IC50 (MDA-MB-231 [2]; read-out: pIC50 (converted)) [µM] |
| --- | --- | --- | --- | --- |
| C[C@H]1C(=O)C[C@@H]2[C@@](C)(O)CC[C@]2(O)C(C)(C)[C@@H]1CC[C@H]1[C@]2(C)CCC(=O)C(C)(C)O[C@H]2CC[C@@]1(C)O | > 50 | > 50 | 38.3 | 38.3 |
| CC1(C)O[C@H]2CC[C@@](C)(O)[C@@H](CC[C@H]3C(C)(C)[C@@]4(O)CC[C@](C)(O)[C@H]4C[C@H]4O[C@]43C)[C@]2(C)CCC1=O | > 50 | > 50 | 33 | 33 |
| CC1=CC[C@H]2[C@@H]1CC=C(C)[C@@H](CC[C@H]1[C@]3(C)CC[C@H](OCc4ccccc4)C(C)(C)O[C@H]3CC[C@@]1(C)O)C2(C)C | 35.7 | > 50 | 13.4 | 13.4 |
| CC1=CC[C@H]2[C@@H]1CC=C(C)[C@@H](CC[C@H]1[C@]3(C)CC[C@H](OC(=O)c4ccncc4)C(C)(C)O[C@H]3CC[C@@]1(C)O)C2(C)C | 19.1 | > 50 | 9.5 | 9.51 |
| CC1=C(CC[C@H]2[C@]3(C)CC[C@H](O)C(C)(C)O[C@H]3CC[C@@]2(C)O)[C@@H]2[C@H](C[C@H]1C(=O)O)[C@@](C)(O)CCC2(C)C | > 50 | 39.8 | 45 | 45 |
| CC1=CC[C@H]2[C@@H]([C@@H]1CC[C@H]1[C@]3(C)CC[C@H](O)C(C)(C)O[C@H]3CC[C@@]1(C)O)C(C)(C)CC[C@]2(C)O | > 50 | > 50 | 42 | 42 |
| CC1=C(CC[C@H]2[C@]3(C)CC[C@H](O)C(C)(C)O[C@H]3CC[C@@]2(C)O)[C@](C)(C/C=C/C(C)(C)O)[C@H](O)CC1 | > 50 | 21.8 | > 50 | 59 |
| CC1=CC[C@H]2[C@@H]1CC=C(C)[C@@H](CC[C@H]1[C@]3(C)CC[C@H](OC(=O)c4ccccc4)C(C)(C)O[C@H]3CC[C@@]1(C)O)C2(C)C | 18.4 | 23.1 | 7.2 | 7.19 |
| CC1=C(CC[C@H]2[C@]3(C)CC[C@H](O)C(C)(C)O[C@H]3CC[C@@]2(C)O)[C@](C)(C/C=C/C(C)(C)OO)[C@H](O)CC1 | > 50 | 27.4 | > 50 | 54 |
| CC1=CC[C@H]2[C@H](CC[C@]2(C)O)C(C)(C)[C@@H]1CC[C@@H]1[C@](C)(O)[C@H](O)C[C@@H]2OC(C)(C)[C@@H](O)CC[C@]21C | > 50 | > 50 | > 50 | 22.4 |
| CC1=CC[C@H]2[C@H](CC[C@]2(C)O)C(C)(C)[C@@H]1CC[C@H]1[C@]2(C)CC[C@H](OC(=O)NS(=O)(=O)c3ccc(C)cc3)C(C)(C)O[C@H]2CC[C@@]1(C)O | 47.1 | > 50 | 18 |  |
| CC1(C)O[C@H]2CC[C@@](C)(O)[C@@H](CC[C@@H]3C(CO)=CC[C@H]4[C@H](CC[C@]4(C)O)C3(C)C)[C@]2(C)CC[C@@H]1O | > 50 | > 50 | > 50 | 87.5 |
| CC(=O)O[C@H]1CC[C@]2(C)[C@H](CC[C@@](C)(O)[C@H]2CC[C@@H]2C(C)=CC[C@H]3[C@H](CC[C@]3(C)OC(C)=O)C2(C)C)OC1(C)C | 26.2 | 39.2 | 20.3 | 20.3 |
| CC1(C)O[C@H]2CC[C@@](C)(O)[C@@H](CC[C@H]3C(C)(C)[C@@]4(O)CC[C@](C)(O)[C@H]4C[C@H]4O[C@]43C)[C@]2(C)CC[C@@H]1O | > 50 | > 50 | > 50 | 36.2 |
| CC1=CC[C@H]2[C@@H]1CC=C(C)[C@@H](CC[C@H]1[C@]3(C)CC[C@H](OC(=O)c4ccc(C)cc4)C(C)(C)O[C@H]3CC[C@@]1(C)O)C2(C)C | 32.7 | > 50 | 12.3 | 12.3 |
| CC1=CC[C@H]2[C@@H]1CC=C(C)[C@@H](CC[C@H]1[C@]3(C)CC[C@H](O)C(C)(C)O[C@H]3CC[C@@]1(C)O)C2(C)C | > 50 | > 50 | 35.3 | 35.3 |

| SMILES | IC50 (MDA-MB-231 [1]) [µM] | IC50 (MCF7) [µM] | IC50 (MDA-MB-231 [2]) [µM] | IC50 (MDA-MB-231 [2]; read-out: pIC50 (converted)) [µM] |
| --- | --- | --- | --- | --- |
| CC1(C)CC[C@](C)(O)[C@H]2C[C@H](O)[C@]3(C)O[C@]3(CC[C@H]3[C@]4(C)CC[C@H](O)C(C)(C)O[C@H]4CC[C@@]3(C)O)[C@H]21 | > 50 | > 50 | > 50 | 92.9 |
| CC1=CC[C@H]2[C@H](CC[C@]2(C)O)C(C)(C)[C@@H]1CC[C@H]1[C@]2(C)CC[C@H](OC(=O)c3ccc(C)cc3)C(C)(C)O[C@H]2CC[C@@]1(C)O | 33.4 | > 50 | 11.8 | 11.8 |
| CC(C)=CCC[C@@]1(C)C(CC[C@H]2[C@]3(C)CC[C@H](O)C(C)(C)O[C@H]3CC[C@@]2(C)O)=C(C)CC[C@H]1O [SIPHONELLINOL D] | > 50 | > 50 | > 50 | 67.3 |
| CC1=CC[C@H]2[C@H](CC[C@]2(C)O)C(C)(C)[C@@H]1CC[C@H]1[C@]2(C)CC[C@@H](O)O[C@H]2CC[C@@]1(C)O | > 50 | > 50 | 48 | 48 |
| CC1=CC[C@H]2[C@H](CC[C@]2(C)O)C(C)(C)[C@@H]1CC[C@H]1[C@]2(C)CC/C(=N/OC(=O)c3ccccc3)C(C)(C)O[C@H]2CC[C@@]1(C)O | 27.4 | 25.6 | 28.5 | 28.5 |
| CC1=CCC2C(CC[C@@]2(C)O)C(C)(C)C1CC[C@@H]1[C@@]2(C)CCC(=O)C(C)(C)O[C@@H]2CC[C@]1(C)O (some centres not stated) [SIPHOLENONE A] | > 50 | > 50 | 28.1 | 28.1 |
| C[C@H]1C(=O)C[C@H]2[C@H](CC[C@]2(C)O)C(C)(C)[C@@H]1CC[C@H]1[C@]2(C)CC[C@H](O)C(C)(C)O[C@H]2CC[C@@]1(C)O | > 50 | > 50 | 47.5 | 47.5 |
| CC1=CC[C@H]2[C@@H]1CC=C(C)[C@@H](CC[C@H]1[C@]3(C)CC[C@H](OC(=O)CCC(=O)O)C(C)(C)O[C@H]3CC[C@@]1(C)O)C2(C)C | 29.6 | > 50 | 21 |  |
| C=C(C)C(CC[C@@]1(C)C(CC[C@H]2[C@]3(C)CC[C@H](O)C(C)(C)O[C@H]3CC[C@@]2(C)O)=C(C)CC[C@H]1O)OO (some centres not stated) [SIPHONELLINOL E] | > 50 | 31.2 | 39 | 39 |
| CC1=CC[C@H]2[C@H](CC[C@]2(C)O)C(C)(C)[C@@H]1CC[C@H]1[C@]2(C)CC[C@H](OCc3ccccc3)C(C)(C)O[C@H]2CC[C@@]1(C)O | 29.1 | > 50 | 12.2 | 12.2 |
| C[C@@H]1C(=O)C[C@H]2[C@@H](/C1=C/C[C@H]1[C@]3(C)CC[C@H](O)C(C)(C)O[C@H]3CC[C@@]1(C)O)C(C)(C)CC[C@]2(C)O | > 50 | > 50 | > 50 | 69 |
| CC1=CC[C@H]2[C@H](CC[C@]2(C)O)C(C)(C)[C@@H]1CC[C@H]1[C@]2(C)CC[C@H](OC(=O)c3ccc(Cl)cc3)C(C)(C)O[C@H]2CC[C@@]1(C)O | 10.3 | 24.1 | 5.3 | 5.3 |
| CC1(C)O[C@H]2CC[C@@](C)(O)[C@@H](CC[C@@H]3C(C=O)=CC[C@H]4[C@H](CC[C@]4(C)O)C3(C)C)[C@]2(C)CCC1=O | > 50 | > 50 | 42.6 | 42.6 |
| CC(=O)O[C@H]1CC[C@]2(C)[C@H](CC[C@@](C)(O)[C@H]2CC[C@@H]2C(C)=CC[C@@H]3C(C)=CC[C@@H]3C2(C)C)OC1(C)C | 39.2 | 43.5 | 16 | 16 |
| CC1=CC[C@H]2[C@@H]1CC=C(C)[C@@H](CCC1=C(C)CC[C@@H]3OC(C)(C)[C@@H](O)CC[C@@]13C)C2(C)C | > 50 | > 50 | 46.7 | 46.7 |
